Laboratory results reported in ChEMBL document CHEMBL2331263, “Non-benzimidazole containing inhibitors of respiratory syncytial virus” (Bioorg Med Chem Lett, 2013).

Legend:
[1] = Apparent intrinsic clearance in human liver microsomes
[2] = Apparent permeability in dog RRCK cells; details: MDCK
[3] = test system: Respiratory syncytial virus; assay: Antiviral activity against Respiratory syncytial virus A2 infected in A549 cells after 3 days by CelltitreGlo assay; assay type: functional, organism-based; details: human respiratory syncytial virus, A2, A549, 72 h
[4] = Octanol-neutral buffer partition co-efficient, log D of the compound at pH 7.4
[5] = Apparent permeability in MDCK cells selected for low expression of efflux transporters; details: dog
[6] = Apparent intrinsic clearance in rat liver microsomes; assay type: ADME, Microsome; details: read-out: CLH(app)
[7] = Intrinsic clearance in rat plasma
Hepatocyte = assay: Apparent intrinsic clearance in human hepatocytes assessed per million cells
Liver microsomes = assay: Apparent intrinsic clearance in rat liver microsomes assessed per mg protein
[8] = Half life in iv dosed rat; details: in vivo
[9] = Oral bioavailability in rat; details: in vivo
[10] = Oral absorption in rat; assay type: ADME, organism-based; details: in vivo
[11] = Volume of distribution in steady state in rat; details: in vivo
[12] = Drug excretion in rat urine; assay type: ADME; details: read-out: Drug excretion

Row | microsomal CLint [1] [µL/min/mg] | IC50 [3] [nM] | logD [4] | Papp [5] [×10⁻⁶ cm/s] | Compound | further results
1 | 9 | 6090 | 0.2 | – | COCc1cn(CCCCO)c(Cn2c(=O)n(C3CC3)c3ccncc32)n1 | Papp [2]: 1 ×10⁻⁶ cm/s
2 | 65 | 4 | 1.8 | – | O=c1n(Cc2nc3c(n2CCCCO)CCCC3)c2cnccc2n1C1CC1 | Papp [2]: 4 ×10⁻⁶ cm/s
3 | < 8 | 109 | 2 | – | O=c1n(Cc2nc(Cl)c(Cl)n2CCCCO)c2cnccc2n1C1CC1 | –
4 | 9 | 12400 | 0.8 | – | COC(=O)c1nc(Cn2c(=O)n(C3CC3)c3ccncc32)n(CCCCO)c1C | Papp [2]: 2 ×10⁻⁶ cm/s
5 | – | 219 | 4.4 | – | CC(C)n1nc(Cn2nc3ccccc3c2CCCCO)c2ccccc21 | –
6 | 246 | 992 | 3.5 | 16 | CC(C)n1nc(Cn2nc3ccccc3c2OCCCO)c2ccccc21 | –
7 | – | 65 | 3.9 | – | CC(C)n1nc(Cn2nc3ccccc3c2OCCCCO)c2ccccc21 | –
8 | 78 | 277 | 3.8 | 14 | CC(C)n1nc(Cn2nc3ccccc3c2CCCO)c2ccccc21 | –
9 | 462 | 169 | 2.9 | 32 | CC(C)n1nc(Cn2c(=O)c3ccccc3n2CCCCO)c2ccccc21 | –
10 | > 320 | 409 | 3.6 | 12 | CC(C)n1nc(Cn2nc3c(c2CCCCO)CCCC3)c2ccccc21 | –
11 | – | 2930 | 2.4 | – | CC(C)n1nc(Cn2nc3ccccc3c2C(=O)NCCCO)c2ccccc21 | –
12 | 242 | 22700 | 4.4 | 8 | CC(C)n1nc(CCn2nc(CCCCO)c3ccccc32)c2cnccc21 | –
13 | 17 | 139 | 1.4 | 4 | Cc1cc(CCn2cc(-c3cccnc3)nc2Cn2c(=O)n(C3CC3)c3ccncc32)no1 | –
14 | 32 | 96 | 1.5 | 2 | Cc1ccc(CCn2cc(-c3cccnc3)nc2Cn2c(=O)n(C3CC3)c3ccncc32)cn1 | –
15 | – | 41 | 1.4 | 3 | Cc1cc(CCn2cc(-c3cccnc3)nc2Cn2c(=O)n(C3CC3)c3ccncc32)on1 | –
16 | 10 | 2230 | 0.9 | – | Cc1ncc(CCn2cc(-c3cccnc3)nc2Cn2c(=O)n(C3CC3)c3ccncc32)o1 | –
17 | < 8 | 265 | 1.2 | 4 | O=c1n(Cc2nc(-c3cccnc3)cn2CCCCO)c2cnccc2n1C1CC1 | microsomal CLint [6]: 44 µL/min/mg; CLint scaled [7]: 95 mL/min/kg; CLH(app) (Hepatocyte): < 2.2 µL/min
18 | < 8 | > 20000 | 0.9 | – | Cn1nccc1-c1cn(CCCCO)c(Cn2c(=O)n(C3CC3)c3ccncc32)n1 | –
19 | < 8 | 235 | 0.6 | 1 | O=c1n(Cc2nc(-c3ncccn3)cn2CCCCO)c2cnccc2n1C1CC1 | CLH(app) (Hepatocyte): < 2.2 µL/min
20 | < 8 | 233 | 1.4 | 5 | O=c1n(Cc2nc(-c3ccccn3)cn2CCCCO)c2cnccc2n1C1CC1 | CLH(app) (Hepatocyte): < 2.2 µL/min
21 | < 8 | 10400 | 0.8 | – | Cn1ccnc1-c1cn(CCCCO)c(Cn2c(=O)n(C3CC3)c3ccncc32)n1 | –
22 | < 8 | 58 | 1.3 | 4 | O=c1n(Cc2nc(-c3nccs3)cn2CCCCO)c2cnccc2n1C1CC1 | CLH(app) (Liver microsomes): 21.1 µL/min; Papp [2]: 4 ×10⁻⁶ cm/s; half-life [8]: 90 min; CLint scaled [7]: 48 mL/min/kg; CLH(app) (Hepatocyte): < 2.2 µL/min; bioavailability [9]: 34%; Fa [10]: > 60%; Vd [11]: 3.5 L/kg; dose excreted [12]: 16%
23 | < 8 | 95 | 0.6 | – | O=c1n(Cc2nc(-c3ncco3)cn2CCCCO)c2cnccc2n1C1CC1 | –
24 | < 8 | 5110 | 0.9 | – | Cc1nnc(-c2cn(CCCCO)c(Cn3c(=O)n(C4CC4)c4ccncc43)n2)s1 | –
25 | 44 | 0.5 | 3.4 | – | COC(=O)N1CCC(n2c(=O)n(Cc3nc4ccccc4n3CCCCO)c3ccccc32)CC1 | Papp [2]: 36 ×10⁻⁶ cm/s
26 | 15 | 55 | -0.5 | – | COC(=O)N1CCC(n2c(=O)n(Cc3nc(C)c(C)n3CCCCO)c3cnccc32)CC1 | Papp [2]: 1 ×10⁻⁶ cm/s
27 | 110 | > 14100 | 2 | – | COC(=O)N1CCC(n2ccc(Cc3nc4ccccc4n3CCCCO)n2)CC1 | Papp [2]: 6 ×10⁻⁶ cm/s
28 | 11 | > 20000 | 1.5 | – | CC(=O)N1CCC(Cn2nc3ccccc3c2CCCCO)CC1 | Papp [2]: 2 ×10⁻⁶ cm/s
29 | – | 13 | – | – | O=c1n(Cc2nc3ccccc3n2CCCCO)c2cnccc2n1C1CC1 | –
